Laboratory results reported in article PMC3653934, “Identification of Adiponectin Receptor Agonist Utilizing a Fluorescence Polarization Based High Throughput Assay” (PLoS ONE, 2013).
Where two headings read alike, the source gives them in different places.

Assays:
AdipoR2 = target: T1, AdipoR2 (UniProt Q86V24); test: Competitive FP assay, displacement of probe 1 from AdipoR2; type: binding, human; conditions: 2 µM receptor, 100 nM probe 1, 30 min, 25°C
T1 sequence (Q86V24 1-386): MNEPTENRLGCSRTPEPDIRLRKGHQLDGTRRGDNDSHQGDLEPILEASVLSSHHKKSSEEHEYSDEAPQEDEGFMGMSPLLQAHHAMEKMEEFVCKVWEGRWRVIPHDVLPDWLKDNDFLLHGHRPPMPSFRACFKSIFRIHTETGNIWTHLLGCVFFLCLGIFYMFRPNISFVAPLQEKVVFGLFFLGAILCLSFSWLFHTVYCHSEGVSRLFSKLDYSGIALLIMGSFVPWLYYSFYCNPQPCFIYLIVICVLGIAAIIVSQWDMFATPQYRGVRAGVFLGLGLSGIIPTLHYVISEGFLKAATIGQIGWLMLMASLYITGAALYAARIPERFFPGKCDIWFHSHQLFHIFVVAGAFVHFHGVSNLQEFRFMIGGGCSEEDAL
Method: Unlabeled short peptide 3 was titrated against the FITC-labeled peptide and adiponectin receptor mixture. Plates were incubated at room temperature for up to 3 hours or 30 min at different temperatures. FP values were taken and IC50 values were calculated.
Master mixtures containing fluorescein-labeled probe 1 and adiponectin receptor (AdipoR1 or AdiopR2, 2 µM and probe 1 at 100 nM) in a reaction volume of 19 µl were prepared and loaded to plates. The library compounds (10 µM –0.078 µM, half dilutions) were prepared separately and transferred into the assay plates. The first and last columns of each plate were used as positive and negative control wells. Wells containing the drug only were used as controls to detect auto-fluorescence of the compounds in the total fluorescence assay. After subtraction of the background signal, data was processed and the IC50 values were determined by non-linear least square fitting using SigmaPlot 11.0.
Given that the present study is a screening study, peptide 3 was chosen as the positive control for cost-efficiency purposes.
To optimize the FP assay properly, it was necessary to assess the stability of the FP assay. The conditions for the FP assay were established by testing various parameters including incubation temperature, time, TF values, ΔmP values, and DMSO tolerance. […] In summary, the competitive FP binding assay conditions ideal for identifying adiponectin receptor agonists are: i) 2 µM adiponectin receptor, ii) 100 nM probe 1, iii) 5% final DMSO concentration (v/v), and iv) incubation for 30 min at 25°C before reading the plate.
A pilot screen against the natural product library of 10,000 compounds described above was performed at screening concentrations of 10 µM to 0.078 µM (half serial dilutions) in 5% DMSO (v/v). Controls present in each assay plate consisted of 5% DMSO (negative control) or peptide 3 (positive control).
We screened a library of 10,000 natural compounds for adiponectin agonists. […] 46 compounds that could generate IC50 curves were identified as initial hits.

MDA-MB-231 cells = test: Cell viability assay (CellTiter-Blue) in MDA-MB-231 cells; type: cell-based; conditions: Homo sapiens, MDA-MB-231; 72 h, 20 µM to 1.2 nM; read-out: IC50 (µM) MDA-MB-231 cells, cell viability
Method: (§1) All cell lines were obtained from the American Type Culture Collection (ATCC). MCF-7 and MDA-MB-231 cells were maintained in DMEM containing 10% fetal bovine serum and supplied with 1% penicillin/streptomycin. All cells were maintained in a 5% CO2 atmosphere at 37°C.
(§2) The effects of the lead compounds on cell proliferation were tested in MCF-7 and MDA-MB-231 cells. Cells were grown to 80% confluence, harvested and aliquoted into 384-well plates in a total volume of 45 µl per well. The outer wells were inoculated with sterile water to minimize evaporation from the sample wells. Cells were allowed to attach overnight and 5 µl culture media containing either vehicles or drug were added. Cell proliferation was evaluated using CellTilter-Blue reagent (Promega, China) according to manufacturer’s instructions after 72-h incubation. Fluorescence was measured with an excitation at 530 nm and emission at 590 nm. After background subtraction, cell viability values were normalized to vehicle controls and expressed as percentage of the mean of the relative vehicle controls.
(§3) To further confirm the agonistic activity of hit compounds, MDA-MB-231 and MCF-7 cells were treated with different concentrations of g-Ad or drug (20 µM to 1.2 nM) for 72 hours and cell viability was measured. Thus, four compounds (arctiin, (-)-arctigenin, matairesinol and gramine) that show agonistic activity against adiponectin receptor 1 and four compounds (deoxyschizandrin, taxifoliol, syringing and parthenolide) that show agonistic activity against adiponectin receptor 2 were identified.

MCF-7 cells = test: Cell viability assay (CellTiter-Blue) in MCF-7 cells; type: cell-based; conditions: Homo sapiens, MCF7; 72 h, 20 µM to 1.2 nM; read-out: IC50 (µM) MCF-7 cells, cell viability
Method: as §1, §2, §3

[1] = primary screen, read-out: IC50 vs AdipoR2 (µM) Primary screen
[2] = validation, read-out: IC50 vs AdipoR2 (µM) Validated

Row | IC50 (AdipoR2; [1]) [µM] | IC50 (AdipoR2; [2]) [µM] | IC50 (MDA-MB-231 cells) [µM] | IC50 (MCF-7 cells) [µM] | SMILES
1 | > 5 | > 5 | 3.2 ± 0.3 | > 10 | COc1ccc(C[C@H]2COC(=O)[C@@H]2Cc2ccc(O[C@@H]3O[C@H](CO)[C@@H](O)[C@H](O)[C@H]3O)c(OC)c2)cc1OC [Compound 1, Arctiin]
2 | > 5 | > 5 | 1.8 ± 0.6 | > 10 | COc1cc(C[C@H]2COC(=O)[C@@H]2Cc2ccc(O)c(OC)c2)ccc1O [Compound 3, Matairesinol]
3 | 3.5 | 3.2 ± 0.7 | > 10 | 5.5 ± 0.6 | COc1cc2c(c(OC)c1OC)-c1c(cc(OC)c(OC)c1OC)C[C@H](C)[C@H](C)C2 [Compound 4, Deoxyschizandrin]
4 | 1.5 | 1.2 ± 0.1 | > 10 | 2.5 ± 0.4 | C=C1C(=O)O[C@H]2[C@H]1CC/C(C)=C/CC[C@@]1(C)O[C@@H]21 [Compound 7, Parthenolide]

Row | SMILES | IC50 (AdipoR2; [1]) [µM] | IC50 (AdipoR2; [2]) [µM] | IC50 (MDA-MB-231 cells) [µM] | IC50 (MCF-7 cells) [µM]
5 | CN(C)Cc1c[nH]c2ccccc12 [Compound 9, Gramine] | 3.6 | 3.2 ± 0.2 | 9.6 ± 0.9 | 0.1 ± 0.1
